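Assay format: 96-well plates, 48-hour exposure. Abbreviation: GI50, concentration required for 50% inhibition of growth.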 The source made the active and inactive calls. No stated cut-off is given here; in the data, active = GI50 up to about 1.1 µM and inactive = higher.
Experiments:
Experiment in all cases: NCI tumour cell line growth inhibition, 48 h
ACHN = system: ACHN
COLO 205 = system: COLO 205
IGROV-1 = system: IGROV-1
HOP-92 = system: HOP-92
SNB-78 = system: SNB-78
HT-29 = system: HT-29
DLD-1 = system: DLD-1
LXFL 529 = system: LXFL 529
SF-268 = system: SF-268
SK-MEL-2 = system: SK-MEL-2
OVCAR-5 = system: OVCAR-5
HOP-18 = system: HOP-18
HCT-116 = system: HCT-116
MOLT-4 = system: MOLT-4
XF498 = system: XF498
DMS-273 = system: DMS-273
NCI-H23 = system: NCI-H23
A498 = system: A498
RPMI-8226 = system: RPMI-8226
LOX IMVI = system: LOX IMVI
EKVX = system: EKVX
NCI-H522 = system: NCI-H522
KM12 = system: KM12
NCI-H460 = system: NCI-H460
RXF 393 = system: RXF 393
HCT-15 = system: HCT-15
KM-20L2 = system: KM-20L2
SNB-19 = system: SNB-19
K562 = system: K562
SR = system: SR
SK-MEL-28 = system: SK-MEL-28
SK-OV-3 = system: SK-OV-3
DMS-114 = system: DMS-114
OVCAR-4 = system: OVCAR-4
Malme-3M = system: Malme-3M
NCI-H226 = system: NCI-H226
SF-295 = system: SF-295
OVCAR-8 = system: OVCAR-8
A549 = system: A549
SN12C = system: SN12C
UO-31 = system: UO-31
HOP-62 = system: HOP-62
OVCAR-3 = system: OVCAR-3
SW-620 = system: SW-620
TK-10 = system: TK-10
M14 = system: M14
M19-MEL = system: M19-MEL
UACC-257 = system: UACC-257
CCRF-CEM = system: CCRF-CEM
SF-539 = system: SF-539
U-251 = system: U-251
HL-60 = system: HL-60
SNB-75 = system: SNB-75
UACC-62 = system: UACC-62
HCC 2998 = system: HCC 2998
786-0 = system: 786-0

Structure (SMILES): N#CCCOCN(CO)c1nc(N(CO)COCCC#N)nc(N(CO)COCCC#N)n1
- GI50 (ACHN): 28.6 µM (inactive)
- GI50 (COLO 205): 18.4 µM (inactive)
- GI50 (IGROV-1): > 100 µM (inactive)
- GI50 (HOP-92): 23.4 µM (inactive)
- GI50 (SNB-78): 79.4 µM (inactive)
- GI50 (HT-29): 29.1 µM (inactive)
- GI50 (DLD-1): 26.7 µM (inactive)
- GI50 (LXFL 529): 17 µM (inactive)
- GI50 (SF-268): 23.1 µM (inactive)
- GI50 (SK-MEL-2): 19 µM (inactive)
- GI50 (OVCAR-5): 35.2 µM (inactive)
- GI50 (HOP-18): 24.3 µM (inactive)
- GI50 (HCT-116): 25.7 µM (inactive)
- GI50 (MOLT-4): 21.9 µM (inactive)
- GI50 (XF498): 17.5 µM (inactive)
- GI50 (DMS-273): 18.7 µM (inactive)
- GI50 (NCI-H23): 31.2 µM (inactive)
- GI50 (A498): > 100 µM (inactive)
- GI50 (RPMI-8226): 22.5 µM (inactive)
- GI50 (LOX IMVI): 31.8 µM (inactive)
- GI50 (EKVX): 31.2 µM (inactive)
- GI50 (NCI-H522): 22.3 µM (inactive)
- GI50 (KM12): 33 µM (inactive)
- GI50 (NCI-H460): 29.7 µM (inactive)
- GI50 (RXF 393): 20.9 µM (inactive)
- GI50 (HCT-15): 18.2 µM
- GI50 (KM-20L2): 25.9 µM (inactive)
- GI50 (SNB-19): 53.6 µM (inactive)
- GI50 (K562): 25 µM (inactive)
- GI50 (SR): 17.3 µM (inactive)
- GI50 (SK-MEL-28): 20.7 µM (inactive)
- GI50 (SK-OV-3): > 100 µM (inactive)
- GI50 (DMS-114): 24.3 µM (inactive)
- GI50 (OVCAR-4): 26.9 µM (inactive)
- GI50 (Malme-3M): 24.9 µM (inactive)
- GI50 (NCI-H226): 22.7 µM (inactive)
- GI50 (SF-295): 21.7 µM (inactive)
- GI50 (OVCAR-8): 15.8 µM (inactive)
- GI50 (A549): 26.1 µM (inactive)
- GI50 (SN12C): 20.4 µM (inactive)
- GI50 (UO-31): 21.7 µM (inactive)
- GI50 (HOP-62): > 100 µM (inactive)
- GI50 (OVCAR-3): 25.7 µM (inactive)
- GI50 (SW-620): 16.1 µM (inactive)
- GI50 (TK-10): 34 µM (inactive)
- GI50 (M14): 21 µM (inactive)
- GI50 (M19-MEL): 23.8 µM (inactive)
- GI50 (UACC-257): 28 µM (inactive)
- GI50 (CCRF-CEM): 23.6 µM (inactive)
- GI50 (SF-539): 2.5 µM (inactive)
- GI50 (U-251): > 100 µM (inactive)
- GI50 (HL-60): 17.7 µM (inactive)

Structure (SMILES): COC(=O)C1Cc2c([nH]c3ccccc23)[C@H](CC(C)C)N1 (stereo not given in full)
- GI50 (ACHN): > 100 µM (inactive)
- GI50 (COLO 205): > 100 µM (inactive)
- GI50 (IGROV-1): > 100 µM (inactive)
- GI50 (HOP-92): > 100 µM (inactive)
- GI50 (SNB-78): > 100 µM (inactive)
- GI50 (HT-29): > 100 µM (inactive)
- GI50 (DLD-1): > 100 µM (inactive)
- GI50 (LXFL 529): > 100 µM (inactive)
- GI50 (SF-268): > 100 µM (inactive)
- GI50 (SK-MEL-2): > 100 µM (inactive)
- GI50 (OVCAR-5): > 100 µM (inactive)
- GI50 (HOP-18): > 100 µM (inactive)
- GI50 (HCT-116): > 100 µM (inactive)
- GI50 (MOLT-4): > 100 µM (inactive)
- GI50 (XF498): > 100 µM (inactive)
- GI50 (DMS-273): > 100 µM (inactive)
- GI50 (NCI-H23): > 100 µM (inactive)
- GI50 (A498): > 100 µM (inactive)
- GI50 (RPMI-8226): > 100 µM (inactive)
- GI50 (LOX IMVI): > 100 µM (inactive)
- GI50 (EKVX): > 100 µM (inactive)
- GI50 (NCI-H522): > 100 µM (inactive)
- GI50 (KM12): > 100 µM (inactive)
- GI50 (RXF 393): > 100 µM (inactive)
- GI50 (KM-20L2): > 100 µM (inactive)
- GI50 (SNB-19): > 100 µM (inactive)
- GI50 (K562): > 100 µM (inactive)
- GI50 (SR): > 100 µM (inactive)
- GI50 (SK-MEL-28): > 100 µM (inactive)
- GI50 (SK-OV-3): > 100 µM (inactive)
- GI50 (DMS-114): > 100 µM (inactive)
- GI50 (Malme-3M): > 100 µM (inactive)
- GI50 (NCI-H226): > 100 µM (inactive)
- GI50 (SNB-75): 97.5 µM (inactive)
- GI50 (SF-295): > 100 µM (inactive)
- GI50 (UACC-62): > 100 µM (inactive)
- GI50 (OVCAR-8): > 100 µM (inactive)
- GI50 (HCC 2998): > 100 µM (inactive)
- GI50 (A549): > 100 µM (inactive)
- GI50 (SN12C): > 100 µM (inactive)
- GI50 (UO-31): > 100 µM (inactive)
- GI50 (HOP-62): > 100 µM (inactive)
- GI50 (786-0): > 100 µM (inactive)
- GI50 (OVCAR-3): > 100 µM (inactive)
- GI50 (SW-620): > 100 µM (inactive)
- GI50 (TK-10): > 100 µM (inactive)
- GI50 (M14): > 100 µM (inactive)
- GI50 (M19-MEL): > 100 µM (inactive)
- GI50 (UACC-257): > 100 µM (inactive)
- GI50 (CCRF-CEM): > 100 µM (inactive)
- GI50 (SF-539): > 100 µM (inactive)
- GI50 (U-251): > 100 µM (inactive)
- GI50 (HL-60): > 100 µM (inactive)

Reference: ChEMBL document CHEMBL1201862, “PubChem BioAssay data set” (2004)
